# Test system: KB
# Assay: Cytotoxicity against human KB cells
# Format: functional, cell-based
row,Compound,Activity
1,C=CC1C(O)C(O)C2C3CCC4C(O)C(O)C(OS(=O)(=O)O)CC4(C)C3CCC12C (stereo not given),Not toxic
2,C=CC1C(O)CC2C3CCC4C(O)C(O)C(OS(=O)(=O)O)CC4(C)C3CCC12C (stereo not given),Not toxic
3,C=CC1CC(O)C2C3CCC4C(O)C(O)C(OS(=O)(=O)O)CC4(C)C3CCC12C (stereo not given),Not toxic
4,C=C[C@H]1CC[C@H]2[C@@H]3CC[C@H]4[C@@H](O[C@@H]5O[C@H](CO)[C@@H](O)[C@H](OS(=O)(=O)O)[C@H]5O)[C@@H](O)CC[C@]4(CO)[C@H]3CC[C@]12C,Not toxic
5,C=C[C@H]1CC[C@H]2[C@@H]3CC[C@H]4[C@@H](O[C@@H]5O[C@H](CO)[C@@H](O)[C@H](OS(=O)(=O)O)[C@H]5O)[C@@H](OS(=O)(=O)O)CC[C@]4(CO)[C@H]3CC[C@]12C,Not toxic

# Reference: ChEMBL document CHEMBL1151826, “Sulfated steroids: ptilosteroids A-C and ptilosaponosides A and B from the Solomon Islands marine sponge Ptilocaulis spiculifer” (J Nat Prod, 2009)
